{"source": "patent US11883423B2", "about": "“Nucleobase analogue derivatives and their applications” (BOARD OF REGENTS, THE UNIVERSITY OF TEXAS SYSTEM, priority 2014, dated 2024)", "key": {"BxPC-3 cells": {"test_system": "BxPC-3 cells", "test": "Cytotoxicity of Gem-ARA, MTT assay, BxPC-3 cells", "assay_type": "cell-based, human", "details": "up to 72 h, mean ± SD (n>3)", "procedure": "(§1) To understand the effect of the omega-3 polyunsaturated fatty acid nature of the DHA (i.e., the docosahexaedecanoyl group) in the Gem-DHA on its cytotoxicity against tumor cells, gemcitabine was also conjugated to arachidonic acid, an omega-6 polyunsaturated fatty acid, to synthesize 4-(N)-arachidonyl gemcitabine (Gem-ARA) (FIG. 4). Human pancreatic cancer cells (MIA PaCa-2 or BxPC-3) were seeded (3,000/well) in 96-well plates. After overnight incubation, cells were treated with various concentrations of gemcitabine HCl or Gem-ARA at 37° C., 5% CO2 for up to 72 h. Gemcitabine HCl was dissolved in phosphate buffered saline (PBS, pH 7.4, 10 mM), and Gem-ARA was dissolved in DMSO. The maximum amount of DMSO added per well was 0.9 μL, which was found non-toxic. The number of viable cells after the incubation was determined using an MTT assay as described above. The 50% inhibition concentration (IC50) values were estimated using GraphPad prism 5 parameters curve fittings."}, "MIA PaCa-2 cells": {"test_system": "MIA PaCa-2 cells", "test": "Cytotoxicity of Gem-ARA, MTT assay, MIA PaCa-2 cells", "assay_type": "cell-based, human", "details": "up to 72 h, mean ± SD (n>3)", "procedure": "as §1"}, "[1]": {"test_system": "NCI-56 human tumor cell lines", "details": "cited from earlier work"}, "[2]": {"test_system": "advanced pancreatic cancer", "details": "in combination with gemcitabine; cited from earlier work"}, "[3]": {"test_system": "MIA PaCa-2, Panc-1 cells, CCRF-CEM, B16-F10, and TC-1", "details": "various tumor cell lines in culture; cited from earlier work"}, "pre-established tumors": {"test_system": "pre-established tumors", "details": "solubilized in a Tween 80 solution; cited from earlier work"}, "[4]": {"test": "Aqueous solubility by the indirect method (IPM/water partitioning, Beall et al.)", "assay_type": "physicochemical", "details": "mean ± SD (n=3)", "procedure": "The aqueous solubility of Gem-DHA was determined following an indirect method according to Beall et al. with minimal modifications (Beall HD et al. International Journal of Pharmaceutics. 1993, 93, 37-47). Briefly, an excess amount of Gem-DHA was added to 100 μl of IPM in a crimp-sealed amber glass vials under nitrogen and was stirred vigorously at room temperature for 24 h, protected from light. After the stirring was stopped, the mixture was left to stand for an additional 24 h for equilibration. The content of the vial was centrifuged (14,000 rpm, 10 min) and the supernatant was transferred into a different tube. Aliquots of the saturated IPM solution were used to measure the Gem-DHA concentration before partitioning (A1) using HPLC (after proper dilution with methanol). Then, water was added to the IPM saturated solution in a volume ratio of 10:1. The two phases were mixed by vortexing for 5 min, left to stand for 15 min, then centrifuged (14,000 rpm, 15 min) to collect the IPM layer. Gem-DHA concentration in the IPM layer (A2) was again measured using HPLC after partitioning. The following equation was used to calculate the partition coefficient (KIPM/water) (Beall HD et al. International Journal of Pharmaceutics. 1993, 93, 37-47):\n[formula] where Vwater is the volume of the water phase and VIPM is the volume of IPM. The value of (Vwater/VIPM) was 10.\nThe aqueous solubility (Sw) of Gem-DHA was determined using the following equation (Id.):\n[formula] where SIPM is the solubility of Gem-DHA in IPM.\n(§2) In order to validate the method of Beall et al. (Id.), the aqueous solubility of 4-(N)-stearoyl gemcitabine, another lipophilic gemcitabine conjugate (Sloat BR et al. Int J Pharm. 2011, 409(1-2), 278-288), which is stable in water, was measured directly (i.e., direct method) or using the indirect method reported by Beall et al. (Beall HD et al. International Journal of Pharmaceutics. 1993, 93, 37-47)."}, "[5]": {"test": "Aqueous solubility measured directly (direct method)", "assay_type": "physicochemical", "details": "mean ± SD (n=3)", "procedure": "as §2"}, "Panc-02 tumor cells": {"test_system": "Panc-02 tumor cells", "test": "Cytotoxicity after 4 h co-incubation, MTT test", "assay_type": "cell-based, mouse", "details": "Panc-02 cells, at concentrations of more than 80 μM", "procedure": "The mechanisms underlying the cytotoxicity of the Gem-DHA may be different from that of gemcitabine. For example, in cell culture studies, Panc-02 cells were seeded into 96-well plates (1,500 cells per well) and incubated at 37° C., 5% CO2 for 24 h. They were then co-incubated with various concentrations of Gem-DHA, gemcitabine HCl alone, or DHA alone for 4 h, and cell viability was determined using an MTT test."}, "Panc-02 tumors": {"test_system": "Panc-02 tumors", "test": "Antitumor activity against s.c. Panc-02 tumors in C57BL/6 mice", "assay_type": "in vivo", "details": "i.p., ~0.1 mmole/kg, twice a week, up to 6 doses", "procedure": "Therefore, the in vivo anti-tumor activity of Gem-DHA was also evaluated and compared to that of DHA alone in male C57BL/6 mice (6-8 weeks, Charles River) with subcutaneously (s.c.)\nimplanted Panc-02 tumors. Briefly, 1×10^6 cells were s.c. injected in the right flank of mice. Sixteen days later, mice were randomized into groups (n=12) and i.p. injected with Gem-DHA (˜55 mg/kg, […]) or DHA (˜33 mg/kg, ˜0.1 mmole/kg). Mice in the control group were i.p. injected with sterile 5% mannitol (w/v). Gem-DHA and DHA was dissolved in a Tween 80/ethanol/water solution with 5% (w/v) of mannitol. The doses were based on the average weight of mice in the same group on the first day of injection. The treatment was repeated twice a week for up to 6 doses. Tumor growth was monitored using a digital caliper, and tumor volume was calculated based on the longest diameter (L1) and the shortest diameter (L2) of each tumor using the equation of V=½×(L1×L2×L2)."}}, "data": [{"molecule": "CCCCC/C=C\\C/C=C\\C/C=C\\C/C=C\\CCCC(=O)Nc1ccn([C@@H]2O[C@H](CO)[C@@H](O)C2(F)F)c(=O)n1", "note": "[Gem-ARA, 4-(N)-Arachidonoyl Gemcitabine]", "values": [{"measurement": "IC50", "setting": "BxPC-3 cells", "result": "1.93 ± 3.8", "unit": "nM"}, {"measurement": "IC50", "setting": "MIA PaCa-2 cells", "result": "64.3 ± 42.7", "unit": "nM"}]}, {"molecule": "CC/C=C\\C/C=C\\C/C=C\\C/C=C\\C/C=C\\C/C=C/CCC(=O)O[C@@H](C(=O)O[C@H]1C[C@@]2(O)[C@@H](OC(=O)c3ccccc3)C3[C@](C)(C(=O)[C@H](OC(C)=O)C(=C1C)C2(C)C)[C@@H](O)C[C@H]1OC[C@@]31OC(C)=O)[C@@H](NC(=O)c1ccccc1)c1ccccc1", "note": "(some centres unmarked) [DHA conjugated to paclitaxel]", "values": [{"measurement": "Effect of DHA conjugation on cytotoxicity", "setting": "[1]", "result": "lowers the cytotoxicity of the paclitaxel"}]}, {"molecule": "C#Cc1cccc(Nc2ncnc3cc(OCCOC)c(OCCOC)cc23)c1", "note": "[erlotinib]", "values": [{"measurement": "Prolongation of median survival", "setting": "[2]", "result": 10, "unit": "days"}]}, {"molecule": "CCCCCCCCCCCCCCCCCC(=O)Nc1ccn([C@@H]2OC(CO)C(O)C2(F)F)c(=O)n1", "note": "(some centres unmarked) [Stearoyl gemcitabine, 4-(N)-stearoyl gemcitabine]", "values": [{"measurement": "Cytotoxicity compared with gemcitabine", "setting": "[3]", "result": "less cytotoxic than gemcitabine alone"}, {"measurement": "Inhibition of tumor growth compared with gemcitabine", "setting": "pre-established tumors", "result": "not more active than gemcitabine alone"}, {"measurement": "KIPM/water (partition coefficient)", "setting": "[4]; IPM/water, room temperature", "result": "35.33 ± 2.7"}, {"measurement": "Water Solubility, Indirect method", "setting": "[4]; estimated from solubility in IPM and KIPM/water", "result": "1.39 ± 0.1", "unit": "µg/mL"}, {"measurement": "Water Solubility, Direct method", "setting": "[5]", "result": "1.38 ± 1.6", "unit": "µg/mL"}]}, {"molecule": "CC/C=C\\C/C=C\\C/C=C\\C/C=C\\C/C=C\\C/C=C\\CCC(=O)O", "note": "[DHA, Cis-4,7,10,13,16,19-docosahexaenoic acid, reference compound]", "values": [{"measurement": "Cytotoxicity after 4 h of co-incubation", "setting": "Panc-02 tumor cells", "result": "did not show any significant cytotoxicity"}, {"measurement": "Inhibition of Panc-02 tumor growth", "setting": "Panc-02 tumors", "result": "did not significantly inhibit the tumor growth"}]}]}
